According to patent US10710994B2, “Oxadiazole transient receptor potential channel inhibitors” (Genentech, Inc., priority 2018, dated 2020):

Target: human TRPA1 channel (Homo sapiens (Human), UniProt O75762)
Experiment: hTRPA1 CHO Ca2+ FLIPR Tetra assay: block of cinnamaldehyde induced calcium influx
Type: cell-based
Details: CHO cells expressing TRPA1, Hill coefficient fixed to 1.5
Protocol: CHO cells expressing TRPA1 were plated into 384-well plates, incubated overnight at 37° C., and loaded with BD calcium indicator dye for 1 hr at 37° C. followed by 15 minutes at room temperature. The assay buffer was Hank's Balanced Salt Solution (HBSS) containing 20 mM HEPES (pH readjusted to 7.4) along with 0.02% BSA.
Following dye load and plate cool down, compounds were added to the cells using FLIPR Tetra. Plates were then incubated with compounds for 10 minutes or 90 minutes at room temperature prior to adding agonist. Following this incubation, about an EC80 concentration of cinnamaldehyde […] was added to active the channels and block of cinnamaldehyde induced calcium influx was measured.
Fixing the Hill coefficient will generally reduce variability of the IC50 determination. The IC50 results were individually examined to make sure the MIN and MAX points were set correctly prior to validation of the results.

[1] = hTRPA1 IC50 10 min, 10 minutes incubation with compound before cinnamaldehyde (about EC80)
[2] = hTRPA1 IC50 90 min, 90 minutes incubation with compound before cinnamaldehyde (about EC80)

Sequence of human TRPA1 channel (O75762 whole entry): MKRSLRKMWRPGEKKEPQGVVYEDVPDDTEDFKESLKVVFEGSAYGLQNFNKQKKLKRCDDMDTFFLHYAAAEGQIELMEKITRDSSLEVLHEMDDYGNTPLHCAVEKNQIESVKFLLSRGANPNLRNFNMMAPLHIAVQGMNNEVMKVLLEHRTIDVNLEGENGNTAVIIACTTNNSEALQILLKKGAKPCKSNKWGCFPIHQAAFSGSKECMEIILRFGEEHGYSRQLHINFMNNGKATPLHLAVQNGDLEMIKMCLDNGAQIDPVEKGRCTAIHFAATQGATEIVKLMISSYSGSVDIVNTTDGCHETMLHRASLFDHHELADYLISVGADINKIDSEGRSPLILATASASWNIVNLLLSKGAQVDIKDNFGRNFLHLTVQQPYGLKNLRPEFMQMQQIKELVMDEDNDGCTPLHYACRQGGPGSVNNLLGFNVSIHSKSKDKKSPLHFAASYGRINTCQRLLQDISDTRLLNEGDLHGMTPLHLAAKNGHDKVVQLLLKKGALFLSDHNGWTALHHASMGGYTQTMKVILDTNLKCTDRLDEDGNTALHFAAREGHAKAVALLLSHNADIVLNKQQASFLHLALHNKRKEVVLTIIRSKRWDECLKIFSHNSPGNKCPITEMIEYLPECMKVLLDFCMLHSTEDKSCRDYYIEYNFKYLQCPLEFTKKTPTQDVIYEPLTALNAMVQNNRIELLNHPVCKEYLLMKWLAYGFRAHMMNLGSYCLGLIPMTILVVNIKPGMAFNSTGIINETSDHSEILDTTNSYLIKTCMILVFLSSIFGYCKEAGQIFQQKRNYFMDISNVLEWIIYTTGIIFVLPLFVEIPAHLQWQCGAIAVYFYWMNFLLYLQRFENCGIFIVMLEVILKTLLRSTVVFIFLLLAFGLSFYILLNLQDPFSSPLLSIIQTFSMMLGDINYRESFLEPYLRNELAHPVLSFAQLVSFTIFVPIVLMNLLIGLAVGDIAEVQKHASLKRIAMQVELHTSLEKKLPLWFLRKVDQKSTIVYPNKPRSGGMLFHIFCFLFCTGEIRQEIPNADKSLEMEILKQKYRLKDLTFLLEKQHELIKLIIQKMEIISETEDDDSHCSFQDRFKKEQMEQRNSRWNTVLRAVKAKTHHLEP

Compound | IC50 [1] [nM] | IC50 [2] [nM]
Cc1cnn2ncn(Cc3nc([C@@H]4CO[C@@H](c5ccc(Cl)cn5)C4)no3)c(=O)c12 (racemic) [Example 72, Racemic 3-((3-((3R,5R)-5-(5-chloropyridin-2-yl)tetrahydrofuran-3-yl)-1,2,4-oxadiazol-5-yl)methyl)-5-methylpyrazolo[5,1-f] [1,2,4]triazin-4(3H)-one] | 219 | 150
Cc1nc(Br)n2ncn(Cc3nc([C@@H]4CO[C@@H](c5ccc(F)cc5)C4)no3)c(=O)c12 (racemic) [Example 90, 7-bromo-5-methyl-3-[[3-[rac-(3R,5R)-5-(4-fluorophenyl)tetrahydro-furan-3-yl]-1,2,4-oxadiazol-5-yl]methyl] imidazo[5,1-f][1,2,4] triazin-4-one] | – | 33
Cc1nc(N2CCN(C)CC2)n2ncn(Cc3nc([C@@H]4CO[C@@H](c5ccc(Cl)cc5)C4)no3)c(=O)c12 (racemic) [Example 92, 5-methyl-7-(4-methylpiperazin-1-yl)-3-[[3-[rac-(3R,5R)-5-(4-chlorophenyl)tetrahydro-furan-3-yl]-1,2,4-oxadiazol-5-yl]methyl]imidazo[5,1-f][1,2,4]triazin-4-one] | – | 170
Cc1nc(Cl)n2ncn(Cc3nc([C@@H]4CO[C@@H](c5ccc(Cl)cc5)C4)no3)c(=O)c12 (racemic) [Example 93, 7-chloro-5-methyl-3-[[3-[rac-(3R,5R)-5-(4-chlorophenyl)tetrahydro-furan-3-yl]-1,2,4-oxadiazol-5-yl]methyl] imidazo[5,1-f][1,2,4] triazin-4-one] | – | 13
O=c1c2c(Cl)ccnc2ncn1Cc1nc([C@@H]2CO[C@@H](c3ccc(F)cc3)C2)no1 (racemic) [Example 95, 5-chloro-3-[[3-[rac-(3R,5R)-5-(4-fluorophenyl)tetrahydrofuran-3-yl]-1,2,4-oxadiazol-5-yl]methyl] pyrido[2,3-d]pyrimidin-4-one] | – | 15
Cc1nn(C)c2ncn(Cc3nc([C@@H]4CO[C@@H](c5ccc(Cl)cc5)C4)no3)c(=O)c12 (racemic) [Example 96, 1,3-dimethyl-5-[[3-[rac-(3R,5R)-5-(4-chlorophenyl)tetrahydro-furan-3-yl]-1,2,4-oxadiazol-5-yl]methyl] pyrazolo[3,4-d]pyrimidin-4-one] | – | 33
Cc1nc(C)n2ncn(Cc3nc([C@@H]4CO[C@@H](c5ccc(Cl)cc5)C4)no3)c(=O)c12 (racemic) [Example 97, 5,7-dimethyl-3-[[3-[rac-(3R,5R)-5-(4-chlorophenyl)tetrahydro-furan-3-yl]-1,2,4-oxadiazol-5-yl]methyl] imidazo[5,1-f][1,2,4] triazin-4-one] | – | 45
O=c1c2cccc(=O)n2ccn1Cc1nc([C@@H]2CO[C@@H](c3ccc(Cl)cc3)C2)no1 (racemic) [Example 98, 2-[[3-[rac-(3R,5R)-5-(4-chlorophenyl)tetrahydro-furan-3-yl]-1,2,4-oxadiazol-5-yl]methyl] pyrido[1,2-a]pyrazine-1,6-dione] | 6.4 | 4
Cc1nc(N(C)C)n2ncn(Cc3nc([C@@H]4CO[C@@H](c5ccc(Cl)cc5)C4)no3)c(=O)c12 (racemic) [Example 105, 7-(dimethylamino)-5-methyl-3-[[3-[rac-(3R,5R)-5-(4-chlorophenyl)tetrahydro-furan-3-yl]-1,2,4-oxadiazol-5-yl]methyl]imidazo[5,1-f][1,2,4]triazin-4-one] | 42 | 59
Nc1nccc2c(=O)n(Cc3nc([C@@H]4CO[C@@H](c5ccc(Cl)cc5)C4)no3)cnc12 (racemic) [Example 108, 8-amino-3-[[3-[rac-(3R,5R)-5-(4-chlorophenyl)tetrahydro-furan-3-yl]-1,2,4-oxadiazol-5-yl]methyl]pyrido[3,4-d] pyrimidin-4-one] | 76.9 | 57

More lines, now with the values ahead:

IC50 [1] [nM] | IC50 [2] [nM] | Compound
– | 330 | Cc1nc(N2CCNCC2)n2ncn(Cc3nc([C@@H]4CO[C@@H](c5ccc(Cl)cc5)C4)no3)c(=O)c12 (racemic) [Example 91, formic acid; 5-methyl-7-piperazin-1-yl-3-[[3-[rac-(3R,5R)-5-(4-chlorophenyl)tetrahydro-furan-3-yl]-1,2,4-oxadiazol-5-yl]methyl] imidazo[5,1-f][1,2,4]triazin-4-one]
– | 12 | O=c1c2cccc(=O)n2ccn1Cc1nc([C@@H]2CO[C@@H](c3ccc(F)cc3)C2)no1 (racemic) [Example 94, 2-[[3-[rac-(3R,5R)-5-(4-fluorophenyl)tetrahydro-furan-3-yl]-1,2,4-oxadiazol-5-yl]methyl]pyrido[1,2-a] pyrazine-1,6-dione]
15.4 | 7.2 | O=c1ccn2c(=O)n(Cc3nc([C@@H]4CO[C@@H](c5ccc(Cl)cc5)C4)no3)ccc2n1 (racemic) [Example 99, 7-[[3-[rac-(3R,5R)-5-(4-chlorophenyl)tetrahydro-furan-3-yl]-1,2,4-oxadiazol-5-yl]methyl]pyrimido[1,6-a]pyrimidine-2,6-dione]
153 | 140 | Cc1cccc2nn(Cc3nc([C@@H]4CO[C@@H](c5ccc(Cl)cc5)C4)no3)c(=O)n12 (racemic) [Example 100, 5-methyl-2-[[3-[rac-(3R,5R)-5-(4-chlorophenyl)tetrahydro-furan-3-yl]-1,2,4-oxadiazol-5-yl]methyl]-[1,2,4]triazolo[4,3-a] pyridin-3-one]
123 | 96 | Cc1nc(N2CCOCC2)n2ncn(Cc3nc([C@@H]4CO[C@@H](c5ccc(Cl)cc5)C4)no3)c(=O)c12 (racemic) [Example 101, 5-methyl-7-morpholino-3-[[3-[rac-(3R,5R)-5-(4-chlorophenyl)tetrahydro-furan-3-yl]-1,2,4-oxadiazol-5-yl]methyl]imidazo[5,1-f][1,2,4]triazin-4-one]
38.9 | 23 | Cn1cncc1C(=O)NCc1nc([C@H]2CO[C@H](c3ccc(Cl)cc3)C2)no1 (racemic) [Example 102, 3-methyl-N-[[3-[rac-(3S,5S)-5-(4-chlorophenyl)tetrahydro-furan-3-yl]-1,2,4-oxadiazol-5-yl]methyl]imidazole-4-carboxamide]
6.9 | 5.6 | Cn1nnc2ccn(Cc3nc([C@@H]4CO[C@@H](c5ccc(F)cc5)C4)no3)c(=O)c21 (racemic) [Example 106, 3-methyl-5-[[3-[rac-(3R,5R)-5-(4-fluorophenyl)tetrahydro-furan-3-yl]-1,2,4-oxadiazol-5-yl]methyl] triazolo[4,5-c]pyridin-4-one]
0.8 | 0.3 | Cc1nc(Br)n2ncn(Cc3nc([C@@H]4CO[C@@H](c5ccc(Cl)cc5)C4)no3)c(=O)c12 (racemic) [Example 107, 7-bromo-5-methyl-3-[[3-[rac-(3R,5R)-5-(4-chlorophenyl)tetrahydro-furan-3-yl]-1,2,4-oxadiazol-5-yl]methyl] imidazo[5,1-f][1,2,4] triazin-4-one]
123 | 14 | Cc1nc2nc(N)n(C)c2c(=O)n1Cc1nc([C@@H]2CO[C@@H](c3ccc(Cl)cc3)C2)no1 (racemic) [Example 113, 8-amino-2,7-dimethyl-1-[[3-[rac-(3R,5R)-5-(4-chlorophenyl)tetrahydro-furan-3-yl]-1,2,4-oxadiazol-5-yl]methyl] purin-6-one]
